This is an account of results in patent US20100272831A1, “PROCESS FOR MANUFACTURING NANOCOMPOSITE MATERIALS FOR MULTISECTORAL APPLICATIONS” (NANOBIOMATTERS, S.L., priority 2005, published 2010).

Data set [1] in a line: Interlayer (basal) spacing of montmorillonite clay treated with expansive-type precursors/modifiers. The class given is physicochemical.
The nature of data set [2]: Interlayer (basal) spacing of kaolinite clay treated with expansive-type precursors/modifiers. The class given is physicochemical. The text has this:
The penetration of the precursors is accelerated by means of the use of temperature, a turbulent regime homogenizer, ultrasound, pressure or a combination thereof. They can be dried by evaporation in a stove, lyophilization, centrifugation processes and/or gravimetric processes in solution or turbo-drying processes or by atomization processes.
In this example the modification process consists of a first step in which the purified kaolinite and montmorillonite clay fining agents are pretreated with an ethanol/water 50/50 (v/v) mixture at 50° C. This process was carried out together with an ultrasonic stirring treatment process for 1 hour and with stirring with a homogenizer for 2 hours to favor the intercalation of the precursor in the clay. The solvent was then removed by means of lyophilization and/or evaporation. […]

The mark [3] stands for this setting: montmorillonite, spacing of the clay with the named modifier.
Where [4] appears, read: kaolinite of Table 1, spacing of the clay with the named modifier.

Regarding `C=CN1CCCC1=O` [Vinyl pyrrolidone], the dMODIFIER in data set [1] (setting [3]) came to 1.23 nm.
The same measure, in the same setting: as for `OC[C@@H](O)[C@@H](O)[C@@H](O)CO` [Adonitol], the figure is 1.04 nm; as for Calcium butyrate, 0.92 nm.
On to `O` [Water], for which the dMODIFIER in data set [2] (setting [4]) was determined as 0.78 nm.
Still for that read-out and setting: for `O=C(O)/C=C\C(=O)O` [Maleic acid] the value was 1.20 nm.
With `C1CCCCC1` [Hexamethylene], the dMODIFIER in data set [2] (setting [4]) was 1.02 nm.
The same measure, in the same setting: for `CC(O)C(=O)O` (stereo not drawn) [Lactic acid] the value was 1.08 nm.
As for `OCCO` [Ethylene glycol], the dMODIFIER in data set [1] is listed as 0.95 nm.
In turn, `OCCOCCOCCO` [Triethylene glycol] had a dMODIFIER in data set [1] (setting [3]) of 1.08 nm.
On to `CC(N)=O` [Acetamide], for which the dMODIFIER in data set [2] (setting [4]) amounted to 1.09 nm.
In turn, `OCC(O)CO` [Glycerol] showed a dMODIFIER in data set [1] (setting [3]) of 1.02 nm.
On the same count and under the same terms, as for `OCCOCCO` [Diethylene glycol], the figure is 1.04 nm.
For `C[S+](C)[O-]` [Dimethyl sulfoxide (DMSO), Dimethyl sulfoxide], the dMODIFIER in data set [2] (setting [4]) came to 1.11 nm.
The same measure, in the same setting: for `O=C(OC[C@H]1O[C@@H](OC(=O)c2cc(O)c(O)c(OC(=O)c3cc(O)c(O)c(O)c3)c2)[C@H](OC(=O)c2cc(O)c(O)c(OC(=O)c3cc(O)c(O)c(O)c3)c2)[C@@H](OC(=O)c2cc(O)c(O)c(OC(=O)c3cc(O)c(O)c(O)c3)c2)[C@@H]1OC(=O)c1cc(O)c(O)c(OC(=O)c2cc(O)c(O)c(O)c2)c1)c1cc(O)c(O)c(OC(=O)c2cc(O)c(O)c(O)c2)c1` [Tannic acid] the value was 1.09 nm; for `NN.O` [Hydrated hydrazine], 1.03 nm.
Turning to `OCCCO` [1,3-Propanediol], the dMODIFIER in data set [1] (setting [3]) is reported as 0.98 nm.
Still for that read-out and setting: for `O=C(O)CO` [Glycolic acid] the value was 1.06 nm.
As for `CNC=O` [N-methyl formamide (NMF), N-methyl formamide], in data set [2] (setting [4]), the dMODIFIER is listed as 1.02 nm.
Same read-out and setting: as for `CCCC(=O)O` [Butyric acid], the figure is 1.01 nm.
Manganese butyrate returned a dMODIFIER in data set [1] (setting [3]) of 0.95 nm.
Turning to `CC=O` [Acetaldehyde], the dMODIFIER in data set [2] (setting [4]) came to 0.91 nm.
On the same count and under the same terms, for `CCCCCC(=O)O` [Hexanoic acid] the value was 1.23 nm.
The same measure, in the same setting: as for `NN` [Anhydrous hydrazine], the figure is 0.96 nm.
Compound `OC[C@@H](O)[C@@H](O)[C@H](O)[C@@H](O)CO` [Sorbitol] registered a dMODIFIER in data set [1] (setting [3]) of 1.19 nm.
Same read-out and setting: for Sucrose acetoisobutyrate the value was 1.08 nm.
For `O=C1C=CC(=O)O1` [Maleic anhydride], in data set [2] (setting [4]), the dMODIFIER is 1.20 nm.
In turn, `CC(O)CO` (stereo not drawn) [1,2-Propanediol] yielded a dMODIFIER in data set [1] (setting [3]) of 1.09 nm.
Turning to `O=C1CCCCCN1` [Caprolactam], in data set [2] (setting [4]), the dMODIFIER stood at 1.18 nm.
Still for that read-out and setting: for `O=C(O)c1ccccc1O` [Salicylic acid] the value was 1.07 nm.
Consider `OC[C@@H](O)[C@H]1OC[C@H](O)[C@H]1O` [Sorbitan], for which, in data set [1] (setting [3]), the dMODIFIER is 1.09 nm.
For the compound `C=COC(C)=O` [Vinyl acetate], the dMODIFIER in data set [2] (setting [4]) stood at 1.21 nm.
For the compound `O=C(O)CCCCC(=O)O` [Adipic acid], the dMODIFIER in data set [2] (setting [4]) came out at 1.03 nm.
On the same count and under the same terms, as for `C=CC(N)=O` [Archylamide], the figure is 1.14 nm.
Take Vinyl versatate: the dMODIFIER in data set [1] (setting [3]) is 1.11 nm.
`CC(=O)[O-].[K+]` [Potassium acetate]: the dMODIFIER in data set [2] came out at 1.39 nm.
In the case of Manganese acetate, in data set [2] (setting [4]), the dMODIFIER worked out at 1.41 nm.
Consider `FC(F)=C(F)F` [Tetrafluoroethylene], for which, in data set [2], the dMODIFIER stood at 0.98 nm.
In the case of `CC(O)CO` (stereo not drawn) [Propylene glycol], in data set [1] (setting [3]), the dMODIFIER worked out at 1.01 nm.
On to `CC(=O)O` [Acetic acid], for which the dMODIFIER in data set [2] (setting [4]) is 1.10 nm.
